Results reported in patent publication US8029770B2 (Rutgers, The State University, priority 2003, dated 2011).
Marks after values point to notes of the source that are not given here.

Test system: apoptotic sunburn cells in the epidermis of SKH-1 mice
Test: UVB-induced apoptotic sunburn cells in the epidermis of SKH-1 mice after topical application
Assay type: in vivo, mouse
Conditions: for activity in stimulating UVB-induced apoptosis in mouse skin, compared with caffeine: first study of compounds structurally related to caffeine, given after UVB; for Percent Apoptotic Sunburn Cells: 6.2 μmole in 100 μL acetone right after UVB 30 mJ/cm^2 and at 30 and 120 min, 6 h after UVB; for activity in stimulating UVB-induced apoptosis, compared with caffeine: similar study, acetone:water (90:10) as vehicle (Table 1)
Protocol: Chemicals and Animals. […] Female SKH-1 hairless mice (6 to 7 weeks old) were purchased from the Charles River Breeding Laboratories, and the animals were kept in an animal facility for at least one week before use at 7 to 8 weeks of age. Mice were given water and PURINA® Laboratory CHOW® 5001 diet from Ralston-Purina (St. […] For the analysis conducted herein, 5 mice were used per group. Treatment of Mice with UVB. […] The radiation was further calibrated with a model IL-1700 research radiometer/photometer (International Light, Newburyport, Mass.). Measurement of apoptotic sunburn cells. Identification of apoptoic sunburn cells was based morphologically on cell shrinkage and nuclear condensation due to fragmentation of the cells. […] Six hours after UVB, the animals were sacrificed and apoptotic sunburn cells in the epidermis were determined morphologically. […] Six hours after UVB, the animals were sacrificed and apoptotic sunburn cells in the epidermis were determined morphologically. […] Acetone Formulation. […] Six hours after UVB, the animals were sacrificed and apoptotic sunburn cells in the epidermis were determined morphologically. […] […] Formulations. […] Six hours after UVB the animals were sacrificed and apoptotic sunburn cells in the epidermis were determined morphologically. […] Six hours after UVB the animals were sacrificed and apoptotic sunburn cells in the epidermis were determined morphologically.

[1] = Table 1, vs acetone group, 6.2 μmole x3 after UVB 30 mJ/cm^2, 6 h

| Compound | activity in stimulating UVB-induced apoptosis in mouse skin, compared with caffeine | Percent Apoptotic Sunburn Cells (mean ± S.E.) | % Induction [1] [%] | activity in stimulating UVB-induced apoptosis, compared with caffeine | further results |
| --- | --- | --- | --- | --- | --- |
| Cn1c(=O)c2ncn(C)c2n(C)c1=O [1,3,9-trimethylxanthine] | somewhat less active than caffeine |  |  |  |  |
| Cn1c(=O)[nH]c2ncn(C)c2c1=O [1,7-dimethylxanthine] | as active as caffeine |  |  |  |  |
| Cn1c(=O)c2c(nc(Br)n2C)n(C)c1=O [8-bromocaffeine] | little or no activity |  |  |  |  |
| Cn1c(=O)c2c(nc(Cl)n2C)n(C)c1=O [8-chlorocaffeine] | little or no activity |  |  |  |  |
| Cn1c(=O)c2c(ncn2C)n(C)c1=O [Caffeine Citrated, citrated caffeine] |  | 0.757 ± 0.199^b % | 271 |  |  |
| CC(=O)CCCCn1c(=O)c2c(ncn2C)n(C)c1=O [Pentoxifylline, pentoxifylline] | little or no activity | 0.318 ± 0.068^ % | 56 | about half as active as caffeine |  |
| O=C([O-])c1ccccc1.[Na+] [Sodium benzoate, sodium benzoate] |  |  |  |  | Percent Sunburn Cells, UVB (6.2 μmole (each) in 100 μL acetone:water (9:1) immediately after UVB 30 mJ/cm^2 and at 30 and 120 min, 6 h, mean ± S.E.): 0.27 ± 0.08%; enhancement of UVB-induced apoptosis in the epidermis, applied in DERMABASE (DERMABASE vehicle, equimolar amounts (Table 4)): inactive; % Induction (Table 2, vs acetone, 6.2 μmole in acetone:water (9:1)): 29% |
| Cn1cnc2c1c(=O)[nH]c(=O)n2C [Theobromine, 3,7-dimethylxanthine] | little or no activity | 0.358 ± 0.064^ % | 75 | about half as active as caffeine |  |
| Cn1c(=O)c2[nH]cnc2n(C)c1=O [Theophylline, 1,3-dimethylxanthine] | as active as caffeine | 0.703 ± 0.171^b % | 245 | somewhat more active than caffeine |  |
| O=c1[nH]c(=O)c2[nH]cnc2[nH]1 [Xanthine, xanthine] | little or no activity | 0.221 ± 0.046^ % | 8 |  |  |
